We go through 19 compounds from patent US11827657B2, “Boron containing pyrazole compounds, compositions comprising them, methods and uses thereof” (BOEHRINGER INGELHEIM ANIMAL HEALTH USA INC., priority 2020, dated 2023).

pIC50: −log10 of the molar value.

JAK1, sequence (P23458 whole entry, species assumed): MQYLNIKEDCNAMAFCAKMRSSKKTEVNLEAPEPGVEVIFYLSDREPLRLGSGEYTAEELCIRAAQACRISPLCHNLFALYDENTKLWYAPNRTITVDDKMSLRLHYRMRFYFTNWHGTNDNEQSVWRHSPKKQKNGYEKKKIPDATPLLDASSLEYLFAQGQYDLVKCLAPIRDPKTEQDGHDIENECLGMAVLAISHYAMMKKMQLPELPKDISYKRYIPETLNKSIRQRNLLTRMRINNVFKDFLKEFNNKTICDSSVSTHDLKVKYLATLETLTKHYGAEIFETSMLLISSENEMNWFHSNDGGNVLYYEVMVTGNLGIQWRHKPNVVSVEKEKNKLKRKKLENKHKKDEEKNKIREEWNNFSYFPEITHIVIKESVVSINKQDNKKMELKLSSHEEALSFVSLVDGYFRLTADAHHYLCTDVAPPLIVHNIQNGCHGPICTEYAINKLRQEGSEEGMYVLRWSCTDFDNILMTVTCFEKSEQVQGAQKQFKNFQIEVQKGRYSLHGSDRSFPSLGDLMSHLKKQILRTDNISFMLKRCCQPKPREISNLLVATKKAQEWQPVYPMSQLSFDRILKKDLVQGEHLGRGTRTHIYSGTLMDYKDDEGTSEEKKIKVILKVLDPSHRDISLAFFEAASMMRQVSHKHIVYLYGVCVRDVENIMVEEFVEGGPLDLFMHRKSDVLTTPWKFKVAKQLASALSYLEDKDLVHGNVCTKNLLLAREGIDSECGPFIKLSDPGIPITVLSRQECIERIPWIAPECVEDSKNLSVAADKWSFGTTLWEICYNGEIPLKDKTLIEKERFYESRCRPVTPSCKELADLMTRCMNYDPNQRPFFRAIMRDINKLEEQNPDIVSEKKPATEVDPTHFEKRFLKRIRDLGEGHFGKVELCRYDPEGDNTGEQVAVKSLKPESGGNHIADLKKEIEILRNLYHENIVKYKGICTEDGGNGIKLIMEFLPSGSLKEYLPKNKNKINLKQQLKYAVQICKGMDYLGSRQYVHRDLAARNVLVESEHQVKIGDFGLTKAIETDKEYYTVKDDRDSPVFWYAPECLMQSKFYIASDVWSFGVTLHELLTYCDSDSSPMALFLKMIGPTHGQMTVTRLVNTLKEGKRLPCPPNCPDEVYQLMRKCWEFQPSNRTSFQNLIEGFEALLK

The assay concerns the target JAK1 (Homo sapiens, UniProt P23458). The assay can be described thus: Biochemical Kinase Assay (JAK), 33P-ATP filter-binding. The settings on record: Biochemical Kinase Inhibition Assay; potency level of IC50; read-out: JAK1 (range). The method in brief:
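Radiometric filter-binding with 33P-ATP in pH 7.5 Hepes buffer with 10 mM MgCl2 and 1% DMSO. Compound preincubated with kinase and substrate 20 min at room temperature, reaction run 2 h at room temperature, spotted on P81 paper to give IC50.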
Take `N#C[C@@H]1CCOC[C@H]1n1cc(C(N)=O)c(Nc2cc3c(c(C4CC4)c2)OB(O)C=C3)n1` (single isomer, unassigned) [Example 55a, 1-[trans-4-cyanotetrahydro-2H-pyran-3-yl]-3-[(8-cyclopropyl-2-hydroxy-1,2-benzoxaborinin-6-yl)amino]pyrazole-4-carboxamide]: the pIC50 was greater than 8.00.
The figure for `N#C[C@@H]1CCOC[C@H]1n1cc(C(N)=O)c(Nc2cc3c(c(C4CC4)c2)OB(O)C=C3)n1` (single isomer, unassigned) [Example 55b, 1-[trans-4-cyanotetrahydro-2H-pyran-3-yl]-3-[(8-cyclopropyl-2-hydroxy-1,2-benzoxaborinin-6-yl)amino]pyrazole-4-carboxamide] is less than 7.30; for `CC1=CB(O)Oc2ccc(Nc3nn(C4COCCC4C#N)cc3C(N)=O)cc21` (stereo not drawn) [Example 3, 1-[trans-4-cyanotetrahydro-2H-pyran-3-yl]-3-[(2-hydroxy-4-methyl-1,2-benzoxaborinin-6-yl)amino]pyrazole-4-carboxamide] it is greater than 8.00.
For the compound `Cc1cc(Nc2nn(C3COCCC3C#N)cc2C(N)=O)cc2c1B(O)OC2` (stereo not drawn) [Example 6, 1-(trans-4-cyanotetrahydro-2H-pyran-3-yl)-3-[(1-hydroxy-7-methyl-3H-2,1-benzoxaborol-5-yl)amino]pyrazole-4-carboxamide], the pIC50 was greater than 8.00.
With `N#CC1CCOCC1n1cc(C(N)=O)c(Nc2cc(Cl)c3c(c2)C=CB(O)O3)n1` (stereo not drawn) [Example 13, 3-((8-chloro-2-hydroxy-2H-benzo[e][1,2]oxaborinin-6-yl)amino)-1-(trans-4-cyanotetrahydro-2H-pyran-3-yl)-1H-pyrazole-4-carboxamide], the pIC50 was greater than 8.00.
Under `CC1=Cc2cc(Nc3nn(C4COCCC4C#N)cc3C(N)=O)cc(F)c2OB1O` (stereo not drawn) [Example 14, 1-(trans-4-cyanotetrahydro-2H-pyran-3-yl)-3-[(8-fluoro-2-hydroxy-3-methyl-1,2-benzoxaborinin-6-yl)amino]pyrazole-4-carboxamide] stands greater than 8.00; under `N#CC1CCOCC1n1cc(C(N)=O)c(Nc2ccc3c(c2)B(O)OC3)n1` (stereo not drawn) [Example 16, 1-(trans-4-cyanotetrahydro-2H-pyran-3-yl)-3-((1-hydroxy-1,3-dihydrobenzo[c][1,2]oxaborol-6-yl)amino)-1H-pyrazole-4-carboxamide], greater than 8.00.
The figure for `CC1=C(C)c2cc(Nc3nn(C4COCCC4C#N)cc3C(N)=O)cc(C)c2OB1O` (stereo not drawn) [Example 23, 1-(trans-4-cyanotetrahydropyran-3-yl)-3-[(2-hydroxy-3,4,8-trimethyl-1,2-benzoxaborinin-6-yl)amino]pyrazole-4-carboxamide] is greater than 8.00; for `Cc1cc(Nc2nn(C3COCCC3C#N)cc2C(N)=O)cc2c1OB(O)C=C2` (stereo not drawn) [Example 27, 1-[trans-4-cyanotetrahydro-2H-pyran-3-yl]-3-[(2-hydroxy-8-methyl-1,2-benzoxaborinin-6-yl)amino]pyrazole-4-carboxamide] it is greater than 8.00; for `CC(C)C1=CB(O)Oc2ccc(Nc3nn(C4COCCC4C#N)cc3C(N)=O)cc21` (stereo not drawn) [Example 30, 1-[trans-4-cyanotetrahydro-2H-pyran-3-yl]-3-[(2-hydroxy-4-isopropyl-1,2-benzoxaborinin-6-yl)amino]pyrazole-4-carboxamide] it is greater than 8.00.
The figure for `CC1(C)OB(O)c2cc(Nc3nn(C4COCCC4C#N)cc3C(N)=O)ccc21` (stereo not drawn) [Example 36, 1-[trans-4-cyanotetrahydro-2H-pyran-3-yl]-3-[(1-hydroxy-3,3-dimethyl-2,1-benzoxaborol-6-yl)amino]pyrazole-4-carboxamide] is greater than 8.00; for `N#CC1CCOCC1n1cc(C(N)=O)c(Nc2cc(F)c3c(c2)COB3O)n1` (stereo not drawn) [Example 38, 1-[trans-4-cyanotetrahydro-2H-pyran-3-yl]-3-[(7-fluoro-1-hydroxy-3H-2,1-benzoxaborol-5-yl)amino]pyrazole-4-carboxamide] it is greater than 8.00; for `N#CC1CCOCC1n1cc(C(N)=O)c(Nc2ccc3c(c2)COB3O)n1` (stereo not drawn) [Example 41, 1-(trans-4-cyanotetrahydro-2H-pyran-3-yl)-3-((1-hydroxy-1,3-dihydrobenzo[c][1,2]oxaborol-5-yl)amino)-1H-pyrazole-4-carboxamide] it is greater than 8.00.
Take `N#CC1CCOCC1n1cc(C(N)=O)c(Nc2ccc3c(c2)B(O)OCC3)n1` (stereo not drawn) [Example 42, 1-[trans-4-cyanotetrahydro-2H-pyran-3-yl]-3-[(1-hydroxy-3,4-dihydro-2,1-benzoxaborinin-7-yl)amino]pyrazole-4-carboxamide]: the pIC50 was greater than 8.00.
Under `N#CC1CCOCC1n1cc(C(N)=O)c(Nc2ccc3c(c2)C(Cl)=CB(O)O3)n1` (stereo not drawn) [Example 43, 3-[(4-chloro-2-hydroxy-1,2-benzoxaborinin-6-yl)amino]-1-[trans-4-cyanotetrahydro-2H-pyran-3-yl]pyrazole-4-carboxamide] stands greater than 8.00.
As for `N#CC1CCOCC1n1cc(C(N)=O)c(Nc2cc(F)c3c(c2)C=CB(O)O3)n1` (stereo not drawn) [Example 44, 1-[trans-4-cyanotetrahydro-2H-pyran-3-yl]-3-[(8-fluoro-2-hydroxy-1,2-benzoxaborinin-6-yl)amino]pyrazole-4-carboxamide], the pIC50 was greater than 8.00.
Under `CC(C)C1=Cc2cc(Nc3nn(C4COCCC4C#N)cc3C(N)=O)ccc2OB1O` (stereo not drawn) [Example 48, 1-(trans-4-cyanotetrahydro-2H-pyran-3-yl)-3-((2-hydroxy-3-isopropyl-2H-benzo[e][1,2]oxaborinin-6-yl)amino)-1H-pyrazole-4-carboxamide] stands greater than 8.00; under `N#CC1CCOCC1n1cc(C(N)=O)c(Nc2ccc3c(c2)C=CB(O)O3)n1` (stereo not drawn) [Example 51, 1-(trans-4-cyanotetrahydro-2H-pyran-3-yl)-3-[(2-hydroxy-1,2-benzoxaborinin-6-yl)amino]pyrazole-4-carboxamide], greater than 8.00.
The figure for `N#CC1CCOCC1n1cc(C(N)=O)c(Nc2cc(Cl)c3c(c2)COB3O)n1` (stereo not drawn) [Example 52, 3-((7-chloro-1-hydroxy-1,3-dihydrobenzo[c][1,2]oxaborol-5-yl)amino)-1-(trans-4-cyanotetrahydro-2H-pyran-3-yl)-1H-pyrazole-4-carboxamide] is greater than 8.00.
